{
  "source": "patent US12364709B2",
  "about": "“Bioavailable poly amines” (AMINEX THERAPEUTICS, INC., priority 2016, dated 2025)",
  "experiment": "28-day repeat-dose toxicity study, toxicokinetics of AMXT 1501 dicaprate",
  "type": "in vivo, beagle dogs",
  "settings": "both sexes, beagle, dog, plasma, po",
  "protocol": "AMXT 1501 PK parameters were calculated for all AMXT 1501 dicaprate-dosed animals for the first dose (Day 1) and last dose (Day 28).",
  "note": "Read-outs that look alike come from different tables or passages of the source.",
  "data": [
    {"smiles": "CCCCCCCCCCCCCCCC(=O)NCCCC[C@@H](N)C(=O)NCCCNCCCCNCCCN", "note": "[AMXT 1501 dicaprate]", "values": [
      {"measurement": "AUC(0-t)", "setting": "16 mg/kg/day, 16 mg/kg/day PO, DFMO 0, Day 28, M+F combined, read-out: AUC0-t Median", "value": 8120, "unit": "ng·h/mL"},
      {"measurement": "AUC(0-inf)", "setting": "16 mg/kg/day, 16 mg/kg/day PO, DFMO 0, Day 28, M+F combined, read-out: AUC0-∞ Mean", "value": 8070, "unit": "ng·h/mL"},
      {"measurement": "AUC(0-inf)", "setting": "16 mg/kg/day, 16 mg/kg/day PO, DFMO 0, Day 28, M+F combined, read-out: AUC0-∞ Median", "value": 8280, "unit": "ng·h/mL"},
      {"measurement": "Cmax", "setting": "16 mg/kg/day, 16 mg/kg/day PO, DFMO 0, Day 28, M+F combined, read-out: Cmax Mean", "value": 286, "unit": "ng/mL"},
      {"measurement": "Cmax", "setting": "16 mg/kg/day, 16 mg/kg/day PO, DFMO 0, Day 28, M+F combined, read-out: Cmax Median", "value": 309, "unit": "ng/mL"},
      {"measurement": "Tmax", "setting": "16 mg/kg/day, 16 mg/kg/day PO, DFMO 0, Day 28, M+F combined, read-out: Tmax Mean", "value": 5.6, "unit": "h"},
      {"measurement": "Tmax", "setting": "16 mg/kg/day, 16 mg/kg/day PO, DFMO 0, Day 28, M+F combined, read-out: Tmax Median", "value": 6, "unit": "h"},
      {"measurement": "half-life", "setting": "16 mg/kg/day, 16 mg/kg/day PO, DFMO 0, Day 28, M+F combined, read-out: t1/2 Mean (converted)", "value": 1.06, "unit": "days"},
      {"measurement": "half-life", "setting": "16 mg/kg/day, 16 mg/kg/day PO, DFMO 0, Day 28, M+F combined, read-out: t1/2 Median (converted)", "value": 1.16, "unit": "days"},
      {"measurement": "AUC(0-t)", "setting": "16 mg/kg/day, 16 mg/kg/day PO, DFMO 50 mg/kg/day, Day 28, M+F combined, read-out: AUC0-24 hr Mean", "value": 4390, "unit": "ng·h/mL"},
      {"measurement": "AUC(0-t)", "setting": "16 mg/kg/day, 16 mg/kg/day PO, DFMO 50 mg/kg/day, Day 28, M+F combined, read-out: AUC0-24 hr Median", "value": 3340, "unit": "ng·h/mL"},
      {"measurement": "AUC(0-t)", "setting": "16 mg/kg/day, 16 mg/kg/day PO, DFMO 50 mg/kg/day, Day 28, M+F combined, read-out: AUC0-t Mean", "value": 9440, "unit": "ng·h/mL"},
      {"measurement": "AUC(0-t)", "setting": "16 mg/kg/day, 16 mg/kg/day PO, DFMO 50 mg/kg/day, Day 28, M+F combined, read-out: AUC0-t Median", "value": 6010, "unit": "ng·h/mL"},
      {"measurement": "AUC(0-inf)", "setting": "16 mg/kg/day, 16 mg/kg/day PO, DFMO 50 mg/kg/day, Day 28, M+F combined, read-out: AUC0-∞ Mean", "value": 9590, "unit": "ng·h/mL"},
      {"measurement": "AUC(0-inf)", "setting": "16 mg/kg/day, 16 mg/kg/day PO, DFMO 50 mg/kg/day, Day 28, M+F combined, read-out: AUC0-∞ Median", "value": 6080, "unit": "ng·h/mL"},
      {"measurement": "Cmax", "setting": "16 mg/kg/day, 16 mg/kg/day PO, DFMO 50 mg/kg/day, Day 28, M+F combined, read-out: Cmax Mean", "value": 262, "unit": "ng/mL"},
      {"measurement": "Cmax", "setting": "16 mg/kg/day, 16 mg/kg/day PO, DFMO 50 mg/kg/day, Day 28, M+F combined, read-out: Cmax Median", "value": 213, "unit": "ng/mL"},
      {"measurement": "Tmax", "setting": "16 mg/kg/day, 16 mg/kg/day PO, DFMO 50 mg/kg/day, Day 28, M+F combined, read-out: Tmax Mean", "value": 6.3, "unit": "h"},
      {"measurement": "Tmax", "setting": "16 mg/kg/day, 16 mg/kg/day PO, DFMO 50 mg/kg/day, Day 28, M+F combined, read-out: Tmax Median", "value": 6, "unit": "h"},
      {"measurement": "half-life", "setting": "16 mg/kg/day, 16 mg/kg/day PO, DFMO 50 mg/kg/day, Day 28, M+F combined, read-out: t1/2 Mean (converted)", "value": 2.2, "unit": "days"},
      {"measurement": "half-life", "setting": "16 mg/kg/day, 16 mg/kg/day PO, DFMO 50 mg/kg/day, Day 28, M+F combined, read-out: t1/2 Median (converted)", "value": 2.41, "unit": "days"},
      {"measurement": "AUC(0-t)", "setting": "16 mg/kg/day, 16 mg/kg/day PO, DFMO 200 mg/kg/day, Day 1, M+F combined, read-out: AUC0-24 hr Mean", "value": 2310, "unit": "ng·h/mL"},
      {"measurement": "AUC(0-t)", "setting": "16 mg/kg/day, 16 mg/kg/day PO, DFMO 200 mg/kg/day, Day 1, M+F combined, read-out: AUC0-24 hr Median", "value": 2470, "unit": "ng·h/mL"},
      {"measurement": "Cmax", "setting": "16 mg/kg/day, 16 mg/kg/day PO, DFMO 200 mg/kg/day, Day 1, M+F combined, read-out: Cmax Mean", "value": 152, "unit": "ng/mL"},
      {"measurement": "Cmax", "setting": "16 mg/kg/day, 16 mg/kg/day PO, DFMO 200 mg/kg/day, Day 1, M+F combined, read-out: Cmax Median", "value": 171, "unit": "ng/mL"},
      {"measurement": "Tmax", "setting": "16 mg/kg/day, 16 mg/kg/day PO, DFMO 200 mg/kg/day, Day 1, M+F combined, read-out: Tmax Mean", "value": 8.4, "unit": "h"},
      {"measurement": "Tmax", "setting": "16 mg/kg/day, 16 mg/kg/day PO, DFMO 200 mg/kg/day, Day 1, M+F combined, read-out: Tmax Median", "value": 6, "unit": "h"},
      {"measurement": "AUC(0-t)", "setting": "32 mg/kg/day, 32 mg/kg/day PO, DFMO 0, Day 1, M+F combined, read-out: AUC0-24 hr Mean", "value": 3590, "unit": "ng·h/mL"},
      {"measurement": "AUC(0-t)", "setting": "32 mg/kg/day, 32 mg/kg/day PO, DFMO 0, Day 1, M+F combined, read-out: AUC0-24 hr Median", "value": 3640, "unit": "ng·h/mL"},
      {"measurement": "Cmax", "setting": "32 mg/kg/day, 32 mg/kg/day PO, DFMO 0, Day 1, M+F combined, read-out: Cmax Mean", "value": 214, "unit": "ng/mL"},
      {"measurement": "Cmax", "setting": "32 mg/kg/day, 32 mg/kg/day PO, DFMO 0, Day 1, M+F combined, read-out: Cmax Median", "value": 224, "unit": "ng/mL"},
      {"measurement": "Tmax", "setting": "32 mg/kg/day, 32 mg/kg/day PO, DFMO 0, Day 1, M+F combined, read-out: Tmax Mean", "value": 8.6, "unit": "h"},
      {"measurement": "Tmax", "setting": "32 mg/kg/day, 32 mg/kg/day PO, DFMO 0, Day 1, M+F combined, read-out: Tmax Median", "value": 9, "unit": "h"},
      {"measurement": "AUC(0-t)", "setting": "32 mg/kg/day, 32 mg/kg/day PO, DFMO 0, Day 28, M+F combined, read-out: AUC0-24 hr Mean", "value": 9410, "unit": "ng·h/mL"},
      {"measurement": "AUC(0-t)", "setting": "32 mg/kg/day, 32 mg/kg/day PO, DFMO 0, Day 28, M+F combined, read-out: AUC0-24 hr Median", "value": 8760, "unit": "ng·h/mL"},
      {"measurement": "AUC(0-t)", "setting": "32 mg/kg/day, 32 mg/kg/day PO, DFMO 0, Day 28, M+F combined, read-out: AUC0-t Mean", "value": 24700, "unit": "ng·h/mL"},
      {"measurement": "AUC(0-t)", "setting": "32 mg/kg/day, 32 mg/kg/day PO, DFMO 0, Day 28, M+F combined, read-out: AUC0-t Median", "value": 24300, "unit": "ng·h/mL"},
      {"measurement": "AUC(0-inf)", "setting": "32 mg/kg/day, 32 mg/kg/day PO, DFMO 0, Day 28, M+F combined, read-out: AUC0-∞ Mean", "value": 24800, "unit": "ng·h/mL"},
      {"measurement": "AUC(0-inf)", "setting": "32 mg/kg/day, 32 mg/kg/day PO, DFMO 0, Day 28, M+F combined, read-out: AUC0-∞ Median", "value": 24400, "unit": "ng·h/mL"},
      {"measurement": "Cmax", "setting": "32 mg/kg/day, 32 mg/kg/day PO, DFMO 0, Day 28, M+F combined, read-out: Cmax Mean", "value": 620, "unit": "ng/mL"},
      {"measurement": "Cmax", "setting": "32 mg/kg/day, 32 mg/kg/day PO, DFMO 0, Day 28, M+F combined, read-out: Cmax Median", "value": 620, "unit": "ng/mL"},
      {"measurement": "Tmax", "setting": "32 mg/kg/day, 32 mg/kg/day PO, DFMO 0, Day 28, M+F combined, read-out: Tmax Mean", "value": 4.3, "unit": "h"},
      {"measurement": "Tmax", "setting": "32 mg/kg/day, 32 mg/kg/day PO, DFMO 0, Day 28, M+F combined, read-out: Tmax Median", "value": 4, "unit": "h"},
      {"measurement": "half-life", "setting": "32 mg/kg/day, 32 mg/kg/day PO, DFMO 0, Day 28, M+F combined, read-out: t1/2 Mean (converted)", "value": 2.03, "unit": "days"},
      {"measurement": "half-life", "setting": "32 mg/kg/day, 32 mg/kg/day PO, DFMO 0, Day 28, M+F combined, read-out: t1/2 Median (converted)", "value": 2.22, "unit": "days"}
    ]}
  ]
}
